Read-outs that look alike come from different tables or passages of the source.
Columns and labels:
5HT2B receptors = target: T1, 5HT2B receptors (Homo sapiens, UniProt P41595); experiment: Human 5-HT2B functional assay in CHO-K1 cells (calcium flux, FLIPR); format: cell-based; settings: for Emax: CHO-K1, read-out: Emax (%), 5-HT2B Agonist Activity
T1 construct: expressed in transfected cells; host or cells: CHO-K1 cells
In short: (§1)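 EC50 came from a 4-parameter logistic fit, with Emax expressed relative to serotonin, of intracellular Ca2+ rises read on FLIPR at 480/530 nm, 25° C, over 3 min. Compounds ran from 10 μM in six 1:10 steps (0.2% DMSO) on serum-starved CHO-K1 transfectants pre-loaded 60 min with Ca4 dye and probenecid.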

5HT2C receptors [1] = target: T2, 5HT2C receptors (Homo sapiens, UniProt P28335); experiment: Human 5-HT2C functional assay in 1321N1 cells (intracellular calcium, FLIPR); format: cell-based; parameters: expressed in transfected cells; host or cells: 1321N1 cells; settings: for EC50: 1321N1 cells stably transfected, maximum calcium response, read-out: EC50 (μM), 5-HT2c Agonist Activity; for Emax: 1321N1 cells, percentage relative to the effect of serotonin, read-out: Emax (%), 5-HT2c Agonist Activity
T2 sequence (P28335 33-458): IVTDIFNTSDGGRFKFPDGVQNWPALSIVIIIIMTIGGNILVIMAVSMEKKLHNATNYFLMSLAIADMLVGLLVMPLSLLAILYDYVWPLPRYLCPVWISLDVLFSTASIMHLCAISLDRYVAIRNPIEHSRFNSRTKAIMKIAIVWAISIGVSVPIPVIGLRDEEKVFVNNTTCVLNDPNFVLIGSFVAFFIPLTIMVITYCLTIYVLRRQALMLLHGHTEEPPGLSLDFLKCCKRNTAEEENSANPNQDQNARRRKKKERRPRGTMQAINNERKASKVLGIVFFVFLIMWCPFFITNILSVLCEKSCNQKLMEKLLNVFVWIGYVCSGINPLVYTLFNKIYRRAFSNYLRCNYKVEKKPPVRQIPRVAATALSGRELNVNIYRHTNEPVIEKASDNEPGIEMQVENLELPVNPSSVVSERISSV
Description: (ii) Human 5-HT2C Functional Assay in 1321N1 Cells
Functional activity was determined by testing the effect of the compounds on intracellular calcium levels in 1321N1 cells stably transfected with the human 5-HT2C receptor. Cells were seeded into 96-well plates at 50,000 cells/well and grown overnight in tissue culture medium (DMEM with Glutamax I (Invitrogen), containing 10% dFCS, 50 μg/mL Gentamicin, 400 μg/mL Geneticin) at 37° C. and 7% CO2. Growth medium was replaced by medium without dFCS for overnight incubation. Cells were loaded with a fluorescent calcium-sensitive dye in the presence of 1% probenicid according to the manufacturer's protocol (Fluo4 AM, Molecular Devices). Serial compound dilutions (final concentrations 10^−10 to 10^−5 M) were added to the cells either alone or in the presence of serotonin (10^−9 M) and the maximum calcium response was determined using a FLIPR instrument (Molecular Devices). Concentration-response curves were fitted using a four-parameter logistic equation (GraphPad Prism). The concentration at which the compound exerts half its maximal effect is named the ‘effective concentration 50’ or ‘EC50’ and is listed in Table 2.
Emax is the maximum functional response or efficacy expressed as a percentage relative to the effect of serotonin.

5HT2C receptors [2] = target: T2, 5HT2C receptors; experiment: Human 5-HT2C functional assay in CHO-K1 cells (calcium flux, FLIPR); format: cell-based; parameters: expressed in transfected cells; host or cells: CHO-K1 cells; settings: for Emax: percentage relative to the effect of serotonin
In short: as §1

[3] = target: T3, human serotonin 5-HT2c receptor (Homo sapiens, UniProt P28335); experiment: Human 5-HT2C receptor radioligand binding assay (agonist site, [125I](±)DOI); settings: membranes of transfected CHO cells, 0.2 nM [125I](±)DOI, 15 minutes at 37° C.
T3 construct: expressed in transfected cells; host or cells: CHO cells (membrane homogenate)
T3 sequence (P28335 33-458): T2 sequence (P28335 33-458)
Description: To determine the effectiveness of compounds having a formula (I), these compounds can be evaluated in a radioligand binding assay for the agonist site of the human serotonin 5-HT2c receptor or in vitro models of cellular function.
(i) Human 5-HT2C Receptor Radioligand Binding Assay
Affinity of compounds for the agonist site of the 5-HT2c receptor in transfected CHO cells was determined in a radioligand binding assay essentially as described by Bryant, H. U., et al., Life Sciences (1996) 59(15), 1259-1268.

[4] = CHO-K1, read-out: Emax (%), 5-HT2c Agonist Activity, CHO-K1 cells

T1 sequence (P41595 whole entry): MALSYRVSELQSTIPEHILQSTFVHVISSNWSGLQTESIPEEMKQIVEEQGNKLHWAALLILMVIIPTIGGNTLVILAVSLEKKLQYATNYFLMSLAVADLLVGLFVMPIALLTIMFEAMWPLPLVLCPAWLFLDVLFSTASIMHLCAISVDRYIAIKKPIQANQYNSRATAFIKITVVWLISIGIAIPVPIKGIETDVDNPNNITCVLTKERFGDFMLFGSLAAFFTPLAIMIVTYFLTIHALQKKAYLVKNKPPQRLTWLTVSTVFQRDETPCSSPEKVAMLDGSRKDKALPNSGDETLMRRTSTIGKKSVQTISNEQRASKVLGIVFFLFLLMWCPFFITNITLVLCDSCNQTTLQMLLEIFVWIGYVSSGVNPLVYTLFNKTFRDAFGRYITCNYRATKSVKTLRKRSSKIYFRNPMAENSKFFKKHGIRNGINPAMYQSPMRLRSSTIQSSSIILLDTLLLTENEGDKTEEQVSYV

| SMILES | EC50 (5HT2B receptors) [µM] | EC50 (5HT2C receptors [1]) [µM] | Emax (5HT2C receptors [1]) [%] | EC50 (5HT2C receptors [2]) [µM] | Emax (5HT2C receptors [2]; [4]) [%] | Ki [3] [µM] | Emax (5HT2B receptors) [%] | EC50 (5HT2B receptors; CHO-K1 cells over-expressing 5HT2B, calcium flux, read-out: EC50 (μM), 5-HT2B Agonist Activity) [µM] | EC50 (5HT2C receptors [2]; CHO-K1 cells over-expressing 5HT2C, calcium flux, read-out: EC50 (μM), 5-HT2c Agonist Activity) [µM] | Emax (5HT2C receptors [2]; CHO-K1 cells, read-out: Emax (%), 5-HT2c Agonist Activity) [%] |
| --- | --- | --- | --- | --- | --- | --- | --- | --- | --- | --- |
| Brc1ccc2c(c1)NCCC1CNCCN21 (stereo not drawn) [Example 19, 9-bromo-1,2,3,4,4a,5,6,7-octahydropyrazino[1,2-a][1,5]benzodiazepine] | > 10 | 0.0283 | 85.5 | 0.02 | > 120 | 0.14 |  |  |  |  |
| O=C1CC2CNCCN2c2cccc(F)c2N1 (stereo not drawn) [Example 32, 8-fluoro-1,2,3,4,4a,5-hexahydropyrazino[1,2-a][1,5]benzodiazepin-6(7H)-one] | > 10 | 0.0258 | 102 | 0.008 | 100 | 0.042 |  |  |  |  |
| O=C1CC2CNCCN2c2c(F)cccc2N1 (stereo not drawn) [Example 33, 11-fluoro-1,2,3,4,4a,5-hexahydropyrazino[1,2-a][1,5]benzodiazepin-6(7H)-one] | > 10 | 0.0142 | 98 | 0.01 | > 120 | 0.042 |  |  |  |  |
| O=C1CC2CNCCN2c2cc(F)ccc2N1 (stereo not drawn) [Example 35, 10-fluoro-1,2,3,4,4a,5-hexahydropyrazino[1,2-a][1,5]benzodiazepin-6(7H)-one] | 0.6 | 0.052 | 100 | 0.02 | > 120 | 0.11 | 80 |  |  |  |
| Cc1ccc2c(c1)N1CCNC[C@@H]1CC(=O)N2 [Example 36, (4aS)-10-methyl-1,2,3,4,4a,5-hexahydropyrazino[1,2-a][1,5]benzodiazepin-6(7H)-one] | 0.008 | 0.0015 | 104 | 0.002 | > 120 | 0.0091 | 100 |  |  |  |
| O=C1C[C@H]2CNCCN2c2cc(Cl)c(Cl)cc2N1 [Example 37, (4aS)-9,10-dichloro-1,2,3,4,4a,5-hexahydropyrazino[1,2-a][1,5]benzodiazepin-6(7H)-one] | 0.003 | 0.0032 | 99.5 | 0.0008 | 100 | 0.014 | 100 |  |  |  |
| CN1CCN2c3ccccc3NC(=O)CC2C1 (stereo not drawn) [Example 38, 3-methyl-1,2,3,4,4a,5-hexahydropyrazino[1,2-a][1,5]benzodiazepin-6(7H)-one] | > 10 | 0.0663 | 68 | 0.08 | 100 | 0.2 |  |  |  |  |
| Cc1cccc2c1NC(=O)CC1CNCCN21 (stereo not drawn) [Example 40, 8-methyl-1,2,3,4,4a,5-hexahydropyrazino[1,2-a][1,5]benzodiazepin-6(7H)-one] | > 10 | 0.0068 | 89.5 | 0.005 | 110 | 0.035 |  |  |  |  |
| O=C1C[C@H]2CNCCN2c2cc(Cl)ccc2N1 [Example 41, (4aS)-10-chloro-1,2,3,4,4a,5-hexahydropyrazino[1,2-a][1,5]benzodiazepin-6(7H)-one] | 0.006 | 0.002 | 99.5 | 0.0008 | > 120 | 0.005 | 110 |  |  |  |
| COc1ccc2c(c1)N1CCNC[C@@H]1CC(=O)N2 [Example 43, (4aS)-10-methoxy-1,2,3,4,4a,5-hexahydropyrazino[1,2-a][1,5]benzodiazepin-6(7H)-one] | 0.06 | 0.0138 | 86 | 0.01 | > 120 | 0.066 | 80 |  |  |  |
| CCOc1ccc2c(c1)N1CCNCC1CC(=O)N2 (stereo not drawn) [Example 44, 10-ethoxy-1,2,3,4,4a,5-hexahydropyrazino[1,2-a][1,5]benzodiazepin-6(7H)-one] |  | 0.0445 | 90 |  |  | 0.15 |  | > 10 | 0.03 | > 120 |
| O=C1NCC2CNCCN2c2ccccc21 (stereo not drawn) [Example 46, 2,3,4,4a,5,6-hexahydropyrazino[1,2-a][1,4]benzodiazepin-7(1H)-one] | 0.3 | 0.0059 | 93 | 0.008 | > 120 | 0.033 | 80 |  |  |  |

From patent US8546377B2 (AbbVie Inc., priority 2009, dated 2013)
